Experiments:
AuroraA-TPX2 = target: T1, AuroraA-TPX2 (Homo sapiens, UniProt O14965); experiment: AuroraA-TPX2 Homogeneous Time Resolved Fluorescent (HTRF) kinase assay; format: biochemical; conditions: ATP about 1 μM, biotinylated PLK peptide, read-out: AurA_IC50—IP (Avg)
T1 construct: 20 μL of AuroraA-TPX2 KD GST; GST
T1 sequence (O14965 133-383 limits assumed): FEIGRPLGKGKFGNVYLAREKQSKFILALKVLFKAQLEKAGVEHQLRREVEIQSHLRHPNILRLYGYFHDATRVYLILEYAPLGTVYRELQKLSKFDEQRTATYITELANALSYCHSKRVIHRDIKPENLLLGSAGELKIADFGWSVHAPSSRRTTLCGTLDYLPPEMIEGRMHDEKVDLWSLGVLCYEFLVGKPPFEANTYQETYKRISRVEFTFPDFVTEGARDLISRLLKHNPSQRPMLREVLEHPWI
T1 sequence (Q9ULW0 1-747 partner): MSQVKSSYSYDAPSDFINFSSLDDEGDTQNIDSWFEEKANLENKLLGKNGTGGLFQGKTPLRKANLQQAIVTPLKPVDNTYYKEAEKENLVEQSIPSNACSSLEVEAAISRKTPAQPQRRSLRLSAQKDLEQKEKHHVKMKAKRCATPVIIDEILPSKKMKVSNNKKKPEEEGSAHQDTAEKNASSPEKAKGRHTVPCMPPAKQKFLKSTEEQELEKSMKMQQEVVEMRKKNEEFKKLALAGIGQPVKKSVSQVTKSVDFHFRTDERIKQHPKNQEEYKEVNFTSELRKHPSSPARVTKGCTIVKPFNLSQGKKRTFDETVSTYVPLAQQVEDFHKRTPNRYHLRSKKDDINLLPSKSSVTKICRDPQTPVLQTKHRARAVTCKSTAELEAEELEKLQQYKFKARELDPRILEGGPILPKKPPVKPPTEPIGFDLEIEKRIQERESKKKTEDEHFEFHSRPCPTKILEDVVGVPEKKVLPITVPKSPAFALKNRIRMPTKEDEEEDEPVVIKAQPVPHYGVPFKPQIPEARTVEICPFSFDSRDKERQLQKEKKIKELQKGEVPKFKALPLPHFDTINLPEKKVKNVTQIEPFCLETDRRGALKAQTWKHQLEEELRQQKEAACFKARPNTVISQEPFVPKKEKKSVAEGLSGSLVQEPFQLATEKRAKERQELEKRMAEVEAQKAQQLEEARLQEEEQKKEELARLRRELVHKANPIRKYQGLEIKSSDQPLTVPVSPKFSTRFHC
Procedure: AuroraA-TPX2-Homogeneous Time Resolved Fluorescent (HTRF) Kinase Assay:
The Aurora-A HTRF assay begins with Aurora-A in the presence of ATP phosphorylating the biotinylated peptide PLK. The reaction incubates for about 120 min. Detection reagents are added to quench the reaction. These agents stop the reaction by diluting out the enzyme and chelating the metals due to the presence of EDTA. After addition, the assay is incubated overnight to allow the detection reagents to equilibrate.
The AuroraA HTRF assay comprises 1 μL of compound in 100% DMSO, 20 μL of ATP and biotinylated PLK, and 20 μL of AuroraA-TPX2 KD GST for a final volume of about 41 μL. The final concentration of PLK is about 1 μM. The final concentration of ATP is about 1 μM (Km(app)=1 μM+/−0.1) and the final concentration of AuroraA is about 5 nM. Buffer conditions are as follows: 60 mM HEPES pH 7.5, 25 mM NaCl, 10 mM MgCl, 2 mM DTT, 0.05% BSA.
(§1) The assay is quenched and stopped with 160 μL of detection reagent. Detection reagents are as follows: Buffer made of 50 mM Tris, pH 7.5, 100 mM NaCl, 3 mM EDTA, 0.05% BSA, 0.1% Tween20. Added to this buffer prior to reading is Steptavidin allophycocyanin (SA-APC) at a final conc in the assay of 0.0005 mg/mL, and europilated anti-phosphoPLK Ab (Eu-anti-PLK) at a final conc of 0.02 nM.
(§2) The assay plate is read in either a Discovery or a RubyStar. The eu-anti-PLK is excited at 320 nm and emits at 615 nm to excite the SA-APC which in turn emits at 655 nm. The ratio of SA-APC at 655 nm (excited due to close proximity to the Eu-anti-PLK because of phosphorylation of the peptide) to free Eu-anti-PLK at 615 nm will give substrate phosphorylation.
(§3) Many of the Examples described herein were tested, and found to be active compounds. Table I includes related biological data, which may be interpreted using the activity gauge below: […]

HeLa cells = experiment: HeLa cell 24 hr ploidy assay; format: cell-based; conditions: Homo sapiens, 24 hrs treatment, DNA content (ploidy), read-out: 24 h_4N Ploidy EC50—IP (Avg)
Procedure: HeLa Cell 24 hr Ploidy Assay Protocol
The purpose of this assay is to evaluate the ability of selected individual compounds to induce Deoxyribonucleic acid (DNA) content (ploidy) in cells thought failed cell division. Cell cycle analysis is a rapid and efficient way to evaluate the status of DNA content (ploidy) of a given cell. HeLa cells (1×10^4 HeLa cells/well) in 100 ul of media (MEM+10% FBS) were plated in 96-well plates (Packard View) and cultured for 24 hrs at 37° C. maintained in a 5% CO2 atmosphere. The following day, cells were treated for 24 hrs with inhibitor compounds (10 pt. Dose ranging from 0.0024-1.25 umol/L). The compounds were serially diluted in DMSO (0.25% final concentration). The cells were fixed (3.7% Formaldehyde and 1% glutaraldehyde) and permeabilized (1×PBS with 1% BSA and 0.2% Triton X-100) in preparation for nuclear staining. The well plates were stained for 45 minutes at RT in the dark using Hoechest 33342 nuclear stain at 0.5 ug·ml (Stock of 10 mg/ml, Invitrogen, CA, Cat # H3570). The nuclear stain was removed by aspiration and the cells were washed with wash buffer. A Cellomics Array Scan Vti plate reader was used to acquire the DNA ploidy data of the cells using Cell Cycle bioapplication. Numbers for each of “valid cell count/well”, “% of 4N cells” and “% of >4Ncells” were calculated with the assistance of an Activity Base 5.1ca software and dose curves were generated using an XLFit software. With XLFit, final EC50 IP and EC50 transit values, as well as the Max and Min, were calculated for each curve. Many of the Examples described herein were tested, and fund to be active compounds. Table I includes related biological data in the 24 h cell-ploidy content assay, which may be interpreted using the activity gauge below: […]

AuroraB = target: T2, AuroraB (Homo sapiens, UniProt Q96GD4); experiment: AuroraB Homogeneous Time Resolved Fluorescent (HTRF) kinase assay; format: biochemical; conditions: ATP 23 μM, biotinylated Histone H3 peptide, read-out: AurB_IC50—IP (Avg)
T2 construct: 20 μL of AuroraB FL His; His
Procedure: AuroraB-Homogeneous Time Resolved Fluorescent (HTRF) Kinase Assay:
The AuroraB HTRF assay begins with AuroraB in the presence of ATP phosphorylating the biotinylated peptide Histone H3. The reaction incubates for about 90 min. the reaction is quenched by addition of detection reagents, which stop the reaction by diluting out the enzyme and chelating the metals due to the presence of EDTA. After addition, the assay is incubated for about 60 min to allow detection reagents to equilibrate.
The AuroraB HTRF assay comprises 1 μL of compound in 100% DMSO, 20 μL of ATP and biotinylated Histone H3, and 20 μL of AuroraB FL His for a final volume of 41 μL. The final concentration of Histone H3 is 0.1 μM. The final concentration of ATP is 23 μM (Km(app)=23 μM+/−2.6) and the final concentration of AuroraB is 400 pM. Buffer conditions are as follows: 50 mM HEPES pH 7.5, 5 mM NaCl, 0.5 mM MgCl, 0.5 mM MnCl, 2 mM DTT, 0.05% BSA.
as §1, with “0.001” for “0.0005”, “anti-phosphoHistoneH3” for “anti-phosphoPLK”, “(Eu-anti-His H3)” for “(Eu-anti-PLK)”, “0.064” for “0.02”
as §2, with “eu-anti-His H3” for “eu-anti-PLK”, “Eu-anti-His H3” for “Eu-anti-PLK”
as §3

T2 sequence (Q96GD4 whole entry): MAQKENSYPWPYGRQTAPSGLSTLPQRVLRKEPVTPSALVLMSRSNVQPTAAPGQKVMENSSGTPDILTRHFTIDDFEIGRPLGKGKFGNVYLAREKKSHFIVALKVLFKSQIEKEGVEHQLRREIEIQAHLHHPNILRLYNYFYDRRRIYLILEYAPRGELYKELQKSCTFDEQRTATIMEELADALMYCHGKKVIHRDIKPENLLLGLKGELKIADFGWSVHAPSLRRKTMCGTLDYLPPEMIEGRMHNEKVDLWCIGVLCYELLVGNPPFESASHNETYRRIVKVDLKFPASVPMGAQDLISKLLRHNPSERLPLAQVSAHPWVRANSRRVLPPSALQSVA

| SMILES | IC50 (AuroraA-TPX2) | EC50 (HeLa cells) | IC50 (AuroraB) |
| --- | --- | --- | --- |
| Clc1ccc(-c2nnc(Nc3ccc(Sc4ccnc5ccnn45)cc3)c3ccccc23)nc1 [Example 20, 4-(5-chloro-2-pyridinyl)-N-(4-(pyrazolo[1,5-a]pyrimidin-7-ylthio)phenyl)-1-phthalazinamine] | < 0.1 µM | < 0.1 µM | < 0.1 µM |
| Cc1ccc(-c2nnc(Nc3ccc(Sc4ccnc5ccnn45)cc3)c3ccccc23)nc1 [Example 21, 4-(5-methyl-2-pyridinyl)-N-(4-(pyrazolo[1,5-a]pyrimidin-7-ylthio)phenyl)-1-phthalazinamine] | < 0.1 µM | < 0.1 µM | < 0.1 µM |
| C=CCOc1cc2nccc(Sc3ccc(Nc4nnc(-c5ccc(Cl)cc5)c5ccccc45)cc3)n2n1 [Example 4, N-(4-(2-(allyloxy)pyrazolo[1,5-a]pyrimidin-7-ylthio)phenyl)-4-(4-chlorophenyl)phthalazin-1-amine] |  | 0.1 to 0.5 µM |  |
| COCCOc1cc2nccc(Sc3ccc(Nc4nnc(-c5ccc(Cl)cc5)c5ccccc45)cc3)n2n1 [Example 6, 4-(4-Chlorophenyl)-N-(4-(2-(2-methoxyethoxy)pyrazolo[1,5-a]pyrimidin-7-ylthio)phenyl)phthalazin-1-amine] | < 0.1 µM | < 0.1 µM | < 0.1 µM |
| Clc1ccc(-c2nnc(Nc3ccc(Sc4ncnn5cccc45)cc3)c3ccccc23)cc1 [Example 25, 4-(4-chlorophenyl)-N-(4-(pyrrolo[2,1-f][1,2,4]triazin-4-ylthio)phenyl)-1-phthalazinamine] | > 2.5 µM | 0.1 to 0.5 µM | < 0.1 µM |
| Clc1ccc(-c2nnc(Nc3ccc(Sc4ncnn5ccc(Cl)c45)cc3)c3ccccc23)cc1 [Example 7, 4-(4-Chlorophenyl)-N-(4-(5-chloropyrrolo[1,2-f][1,2,4]triazin-4-ylthio)phenyl)phthalazin-1-amine] | > 2.5 µM | 0.1 to 0.5 µM | < 0.1 µM |
| Clc1ccc(-c2nnc(Nc3ccc(Oc4ccnn5cccc45)cc3)c3ccccc23)cc1 [Example 2, 4-(4-Chlorophenyl)-N-(4-(pyrrolo[1,2-b]pyridazin-4-yloxy)phenyl)-1-phthalazinamine] | 0.1 to 0.5 µM | 0.1 to 0.5 µM | < 0.1 µM |
| Cc1csc(-c2nnc(Nc3ccc(Oc4ncnn5cccc45)cc3)c3ccccc23)c1 [Example 24, 4-(4-methyl-2-thienyl)-N-(4-(pyrrolo[2,1-f][1,2,4]triazin-4-yloxy)phenyl)-1-phthalazinamine] | 0.1 to 0.5 µM | 0.1 to 0.5 µM | < 0.1 µM |
| Cc1csc(-c2nnc(Nc3ccc(Sc4ccnc5cc(C6CC6)nn45)cc3)c3ccccc23)c1 [Example 23, N-(4-((2-cyclopropylpyrazolo[1,5-a]pyrimidin-7-yl)thio)phenyl)-4-(4-methyl-2-thienyl)-1-phthalazinamine] | < 0.1 µM | < 0.1 µM | 0.1 to 0.5 µM |
| COCCOc1cc2nccc(Sc3ccc(Nc4nnc(-c5cc(C)cs5)c5ccccc45)cc3)n2n1 [Example 28, N-(4-((2-((2-(methyloxy)ethyl)oxy)pyrazolo[1,5-a]pyrimidin-7-yl)thio)phenyl)-4-(4-methyl-2-thienyl)-1-phthalazinamine] | < 0.1 µM | < 0.1 µM | < 0.1 µM |
| Clc1ccn2ncnc(Sc3ccc(Nc4nnc(-c5ccccc5)c5ccccc45)cc3)c12 [Example 29, N-(4-((5-chloropyrrolo[2,1-f][1,2,4]triazin-4-yl)thio)phenyl)-4-phenyl-1-phthalazinamine] | > 2.5 µM | 0.1 to 0.5 µM | < 0.1 µM |
| Clc1ccc(-c2nnc(Nc3ccc(Sc4ccnc5cc(C6CC6)nn45)cc3)c3ccccc23)cc1 [Example 1, 4-(4-Chlorophenyl)-N-(4-(2-cyclopropylpyrazolo[1,5-a]pyrimidin-7-ylthio)phenyl)phthalazin-1-amine] | > 2.5 µM | < 0.1 µM | < 0.1 µM |
| Cc1csc(-c2nnc(Nc3ccc(Sc4ncnn5cccc45)cc3)c3ccccc23)c1 [Example 26, 4-(4-methyl-2-thienyl)-N-(4-(pyrrolo[2,1-f][1,2,4]triazin-4-ylthio)phenyl)-1-phthalazinamine] | 0.5 to 2.5 µM | 0.1 to 0.5 µM | < 0.1 µM |
